# In patent publication US4547489A, “Conformationally restricted thymopentin-like compounds” (Ortho Pharmaceutical Corporation, priority 1984, dated 1985):
# Where a SMILES comes first, the peptide text is derived from it. Where no end group is shown, it is not given here.
# Test system: isolated thymopoietin cell surface receptor protein from CEM cells
# Experiment: not given
# Conditions: 2.3×10^-10 M 125I-Tp, 4 μg receptor protein, TP 37-45 nonapeptide present, 12 h
row,Compound,displacement of 125I-thymopoietin (in words)
1,"CRF: corticotropin-releasing factor (SEEPPISLDLTFHLLREVLEMARAEQLAQQAHSNRKLMEII; ends and bridges not checked; UniProt P06850 154-194, looked up)",no detectable displacement
2,"ACTH: adrenocorticotropic hormone (SYSMEHFRWGKPVGKKRRPVKVYPNGAEDESAEAFPLEF; Corticotropin; UniProt P01189 138-176, looked up)",no detectable displacement
3,"β-endorphin: comparison peptide in the receptor assay (YGGFMTSEKSQTPLVTLFKNAIIKNAYKKGE; Beta-endorphin; UniProt P01189 237-267, looked up)",no detectable displacement
4,growth hormone: comparison peptide in the receptor assay,no detectable displacement
5,C[C@H](N)C(=O)NCC(=O)N[C@H]1CSSC[C@@H](C(=O)O)NC(=O)[C@H](CO)NC(=O)[C@H]([C@@H](C)O)NC(=O)[C@H](Cc2ccccc2)NC(=O)[C@H]([C@@H](C)O)NC(=O)[C@H](CCCCN)NC(=O)[C@H](Cc2c[nH]c3ccccc23)NC(=O)[C@H](Cc2ccccc2)NC(=O)[C@H](Cc2ccccc2)NC(=O)[C@H](CC(N)=O)NC(=O)[C@H](CCCCN)NC1=O [somatostatin],no detectable displacement
6,glucagon: comparison peptide in the receptor assay,no detectable displacement
7,ubiquitin,no detectable displacement

# Test system: cell membrane receptor of the intact CEM cell
# Experiment: Cyclic-GMP assay: induction of cyclic-GMP production in CEM cells
# Type: cell-based, human
# Conditions: 4-5 min incubation at 37° C., radioimmunoassay of cyclic GMP
# Excerpt: This biological activity is evidenced by an assay measuring induction of cyclic-GMP production in a human T-cell line in comparison with thymopoietin. The induction of c-GMP production by a test peptide in this assay indicates the ability of the test peptide to bind to the thymopoietin receptor site on the cell and induce thymopoietin-like biological activity.
# This assay measures the ability of the test peptide to bind to the cell membrane receptor of the intact CEM cell and selectively stimulate production of cyclic-GMP, as does thymopoietin itself.
# The CEM cell line was obtained from the American Type Culture Collection and was cultured in RPMI-1640 medium supplemented with 10% heat-inactivated fetal bovine serum, 10% heat-inactivated horse serum, 2mM L-glutamine, and 50 µg/ml gentamycin at 37° C. in a humid atmosphere containing 5 percent CO2, to a final density of 3-4×10^6 cells/ml. […]
# The cells in TCA were then homogenized and sonicated to release cyclic nucleotide. The resulting suspension was centrifuged at 3000 g for 20 min at 4° C. and the resulting precipitate was dissolved in 0.1N NaOH and sonicated for a further 30 minutes, after which the protein content was determined by the method of Cadman, et al., Anal. Biochem., 96, 21-23 (1979). […]
row,Compound,thymopentin-like activity (cyclic GMP induced by test peptide)
1,"CC(C)[C@@H]1NC(=O)[C@H](CC(=O)O)NC(=O)[C@H](CCCCN)NC(=O)[C@H](CCCNC(=N)N)NC(=O)[C@H](Cc2ccc(O)cc2)NC1=O [peptide 1, Cyclo-(Arg-Lys-Asp-Val-Tyr)] (cyclo(DVYRK))",demonstrated thymopentin-like activity
2,"CC(C)[C@@H]1NC(=O)[C@H](CC(=O)O)NC(=O)[C@H](CCCCN)NC(=O)[C@H](CCCNC(=N)N)NC(=O)CNC(=O)[C@H](Cc2ccc(O)cc2)NC1=O [peptide 2, Cyclo-[Arg-Lys-Asp-Val-Tyr-Gly]] (cyclo(DVYGRK))",demonstrated thymopentin-like activity
